# PubChem BioAssay (NCI)
#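 Five compound concentrations were applied to cells in 96-well plates for 48 hours; endpoints were derived by simple linear interpolation of the resulting dose-response curve. At the GI50, growth is halved. At the TGI there is no net growth.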
# Assays:
# Experiment in all cases: NCI-60 cell line screen, 48 h
# 786-0 renal = tested on: 786-0 renal
# A498 renal = tested on: A498 renal
# A549 NSCLC = tested on: A549 NSCLC
# ACHN renal = tested on: ACHN renal
# BT-549 breast = tested on: BT-549 breast
# CAKI-1 renal = tested on: CAKI-1 renal
# CCRF-CEM leukemia = tested on: CCRF-CEM leukemia
# COLO 205 colon = tested on: COLO 205 colon
# DU-145 prostate = tested on: DU-145 prostate
# EKVX NSCLC = tested on: EKVX NSCLC
# HCC-2998 colon = tested on: HCC-2998 colon
# HCT-116 colon = tested on: HCT-116 colon
# HCT-15 colon = tested on: HCT-15 colon
# HL-60(TB) leukemia = tested on: HL-60(TB) leukemia
# HOP-62 NSCLC = tested on: HOP-62 NSCLC
# HOP-92 NSCLC = tested on: HOP-92 NSCLC
# HT29 colon = tested on: HT29 colon
# IGROV1 ovarian = tested on: IGROV1 ovarian
# K-562 leukemia = tested on: K-562 leukemia
# KM12 colon = tested on: KM12 colon
# LOX IMVI melanoma = tested on: LOX IMVI melanoma
# M14 melanoma = tested on: M14 melanoma
# MALME-3M melanoma = tested on: MALME-3M melanoma
# MCF7 breast = tested on: MCF7 breast
# MDA-MB-231 breast = tested on: MDA-MB-231 breast
# MDA-MB-435 = tested on: MDA-MB-435
# MOLT-4 leukemia = tested on: MOLT-4 leukemia
# NCI-H226 lung = tested on: NCI-H226 lung
# NCI-H23 lung = tested on: NCI-H23 lung
# NCI-H460 lung = tested on: NCI-H460 lung
# NCI-H522 lung = tested on: NCI-H522 lung
# OVCAR-3 ovarian = tested on: OVCAR-3 ovarian
# OVCAR-4 ovarian = tested on: OVCAR-4 ovarian
# OVCAR-5 ovarian = tested on: OVCAR-5 ovarian
# OVCAR-8 ovarian = tested on: OVCAR-8 ovarian
# PC-3 prostate = tested on: PC-3 prostate
# RPMI-8226 leukemia = tested on: RPMI-8226 leukemia
# RXF 393 renal = tested on: RXF 393 renal
# SF-268 CNS = tested on: SF-268 CNS
# SF-295 CNS = tested on: SF-295 CNS
# SF-539 CNS = tested on: SF-539 CNS
# SK-MEL-2 melanoma = tested on: SK-MEL-2 melanoma
# SK-MEL-28 melanoma = tested on: SK-MEL-28 melanoma
# SK-MEL-5 melanoma = tested on: SK-MEL-5 melanoma
# SK-OV-3 ovarian = tested on: SK-OV-3 ovarian
# SN12C renal = tested on: SN12C renal
# SNB-19 CNS = tested on: SNB-19 CNS
# SNB-75 CNS = tested on: SNB-75 CNS
# SR leukemia = tested on: SR leukemia
# SW-620 colon = tested on: SW-620 colon
# T-47D breast = tested on: T-47D breast
# TK-10 renal = tested on: TK-10 renal
# U251 CNS = tested on: U251 CNS
# UACC-257 melanoma = tested on: UACC-257 melanoma
# UACC-62 melanoma = tested on: UACC-62 melanoma
# UO-31 renal = tested on: UO-31 renal
smiles,measurement,setting,value
O=C(N/N=C/c1ccc(Cl)cc1)c1[nH]c2ccc(Cl)cc2c1-c1ccccc1,GI50,786-0 renal,294 nM
same,TGI,786-0 renal,> 34700 nM
same,GI50,A498 renal,15400 nM
same,TGI,A498 renal,> 100000 nM
same,GI50,A549 NSCLC,348 nM
same,TGI,A549 NSCLC,29300 nM
same,GI50,ACHN renal,199 nM
same,TGI,ACHN renal,> 45300 nM
same,GI50,BT-549 breast,146 nM
same,TGI,BT-549 breast,3580 nM
same,GI50,CAKI-1 renal,185 nM
same,TGI,CAKI-1 renal,645 nM
same,GI50,CCRF-CEM leukemia,98.6 nM
same,GI50,COLO 205 colon,202 nM
same,TGI,COLO 205 colon,406 nM
same,GI50,DU-145 prostate,104 nM
same,TGI,DU-145 prostate,367 nM
same,GI50,EKVX NSCLC,317 nM
same,TGI,EKVX NSCLC,> 100000 nM
same,GI50,HCC-2998 colon,326 nM
same,TGI,HCC-2998 colon,15500 nM
same,GI50,HCT-116 colon,114 nM
same,TGI,HCT-116 colon,1560 nM
same,GI50,HCT-15 colon,255 nM
same,GI50,HL-60(TB) leukemia,107 nM
same,TGI,HL-60(TB) leukemia,393 nM
same,GI50,HOP-62 NSCLC,494 nM
same,TGI,HOP-62 NSCLC,36400 nM
same,GI50,HOP-92 NSCLC,424 nM
same,TGI,HOP-92 NSCLC,41500 nM
same,GI50,HT29 colon,122 nM
same,TGI,HT29 colon,> 36000 nM
same,GI50,IGROV1 ovarian,52.3 nM
same,TGI,IGROV1 ovarian,12100 nM
same,GI50,K-562 leukemia,206 nM
same,TGI,K-562 leukemia,12700 nM
same,GI50,KM12 colon,181 nM
same,TGI,KM12 colon,568 nM
same,GI50,LOX IMVI melanoma,120 nM
same,TGI,LOX IMVI melanoma,> 37400 nM
same,GI50,M14 melanoma,93.7 nM
same,TGI,M14 melanoma,18500 nM
same,GI50,MALME-3M melanoma,17800 nM
same,TGI,MALME-3M melanoma,76400 nM
same,GI50,MCF7 breast,115 nM
same,TGI,MCF7 breast,21700 nM
same,GI50,MDA-MB-231 breast,201 nM
same,TGI,MDA-MB-231 breast,633 nM
same,GI50,MDA-MB-435,245 nM
same,TGI,MDA-MB-435,720 nM
same,GI50,MOLT-4 leukemia,108 nM
same,TGI,MOLT-4 leukemia,> 32000 nM
same,GI50,NCI-H226 lung,290 nM
same,TGI,NCI-H226 lung,> 44500 nM
same,GI50,NCI-H23 lung,328 nM
same,TGI,NCI-H23 lung,35500 nM
same,GI50,NCI-H460 lung,328 nM
same,TGI,NCI-H460 lung,3990 nM
same,GI50,NCI-H522 lung,45.8 nM
same,TGI,NCI-H522 lung,167 nM
same,GI50,OVCAR-3 ovarian,26.5 nM
same,TGI,OVCAR-3 ovarian,58.4 nM
same,GI50,OVCAR-4 ovarian,183 nM
same,TGI,OVCAR-4 ovarian,> 79300 nM
same,GI50,OVCAR-5 ovarian,573 nM
same,TGI,OVCAR-5 ovarian,> 100000 nM
same,GI50,OVCAR-8 ovarian,132 nM
same,TGI,OVCAR-8 ovarian,32600 nM
same,GI50,PC-3 prostate,200 nM
same,TGI,PC-3 prostate,44800 nM
same,GI50,RPMI-8226 leukemia,19.3 nM
same,TGI,RPMI-8226 leukemia,55.6 nM
same,GI50,RXF 393 renal,123 nM
same,TGI,RXF 393 renal,1510 nM
same,GI50,SF-268 CNS,161 nM
same,TGI,SF-268 CNS,> 42300 nM
same,GI50,SF-295 CNS,81.5 nM
same,TGI,SF-295 CNS,2580 nM
same,GI50,SF-539 CNS,94.7 nM
same,TGI,SF-539 CNS,267 nM
same,GI50,SK-MEL-2 melanoma,332 nM
same,TGI,SK-MEL-2 melanoma,35500 nM
same,GI50,SK-MEL-28 melanoma,2770 nM
same,TGI,SK-MEL-28 melanoma,> 68100 nM
same,GI50,SK-MEL-5 melanoma,214 nM
same,TGI,SK-MEL-5 melanoma,469 nM
same,GI50,SK-OV-3 ovarian,387 nM
same,GI50,SN12C renal,206 nM
same,TGI,SN12C renal,> 70400 nM
same,GI50,SNB-19 CNS,504 nM
same,TGI,SNB-19 CNS,> 56100 nM
same,GI50,SNB-75 CNS,1020 nM
same,TGI,SNB-75 CNS,> 51200 nM
same,GI50,SR leukemia,133 nM
same,TGI,SR leukemia,2090 nM
same,GI50,SW-620 colon,159 nM
same,TGI,SW-620 colon,> 100000 nM
same,GI50,T-47D breast,38200 nM
same,TGI,T-47D breast,> 100000 nM
same,GI50,TK-10 renal,3300 nM
same,TGI,TK-10 renal,59700 nM
same,GI50,U251 CNS,255 nM
same,TGI,U251 CNS,4680 nM
same,GI50,UACC-257 melanoma,7420 nM
same,TGI,UACC-257 melanoma,> 100000 nM
same,GI50,UACC-62 melanoma,191 nM
same,TGI,UACC-62 melanoma,> 52500 nM
same,GI50,UO-31 renal,268 nM
same,TGI,UO-31 renal,> 65000 nM
